From patent US9423396B2, “Bodipy structure fluorescence probes for diverse biological applications” (National University of Singapore, priority 2011, dated 2016)

Test: Spectroscopic measurements (absorption, emission, quantum yield, extinction coefficient)
Assay type: physicochemical
[1] = BDNCA library, difference emission minus absorption
[2] = BDNCA library, extinction coefficient; in M-1 cm-1 (unit assumed)
[3] = BDNCA library, fluorescence emission
[4] = absorption maximum, BDNCA library
[5] = difference of emission and absorption maxima
[6] = extinction coefficient, BDNCA library; in M-1 cm-1 (unit assumed)
[7] = fluorescence emission maximum, BDNCA library

| SMILES | Qunt. Yield (BDNCA library) | Abs (BDNCA library, absorption) [nm] | Flu-Abs [1] | ε [2] | Flu [3] | Abs [4] [nm] | Flu-Abs [5] | ε [6] | Flu [7] | Qunt. Yield (quantum yield, BDNCA library) |
| --- | --- | --- | --- | --- | --- | --- | --- | --- | --- | --- |
| CCCOc1ccc(/C=C/c2cc(C)c3n2[B-](F)(F)[N+]2=CC=CC2=C3c2ccc(NC(=O)CCl)cc2)cc1 [BDNCA-140] | 0.07 | 566 | 32 | 27,185 | 598 |  |  |  |  |  |
| CC1=CC(/C=C/c2ccccc2I)=[N+]2C1=C(c1ccc(NC(=O)CCl)cc1)c1cccn1[B-]2(F)F [BDNCA-384] |  |  |  |  |  | 555 | 23 | 60,686 | 578 | 0.11 |
| COc1ccc([N+](=O)[O-])cc1/C=C/C1=[N+]2C(=C(c3ccc(NC(=O)CCl)cc3)c3cccn3[B-]2(F)F)C(C)=C1 [BDNCA-250] | 0.12 | 559 | 22 | 53,547 | 581 |  |  |  |  |  |
| COc1cc(Cl)cc(/C=C/C2=[N+]3C(=C(c4ccc(NC(=O)CCl)cc4)c4cccn4[B-]3(F)F)C(C)=C2)c1O [BDNCA-275] | 0.01 | 563 | 22 | 60,686 | 585 |  |  |  |  |  |
| CC1=CC(/C=C/c2c[nH]c3ccc(Br)cc23)=[N+]2C1=C(c1ccc(NC(=O)CCl)cc1)c1cccn1[B-]2(F)F [BDNCA-185] | 0.06 | 581 | 65 | 29,931 | 646 |  |  |  |  |  |
| CC1=CC(/C=C/c2ccc(C#N)cc2)=[N+]2C1=C(c1ccc(NC(=O)CCl)cc1)c1cccn1[B-]2(F)F [BDNCA-15] | 0.13 | 560 | 18 | 49,977 | 578 |  |  |  |  |  |
| Cc1cc(/C=C/c2cccc(Br)c2O)n2c1C(c1ccc(NC(=O)CCl)cc1)=C1C=CC=[N+]1[B-]2(F)F [BDNCA-256] | 0.04 | 561 | 21 | 52,449 | 582 |  |  |  |  |  |
| CC1=CC(/C=C/c2ccccc2)=[N+]2C1=C(c1ccc(NC(=O)CCl)cc1)c1cccn1[B-]2(F)F [BDNCA-27] | 0.11 | 554 | 23 | 73,318 | 577 |  |  |  |  |  |
| CC1=CC(/C=C/c2ccc(-c3ccccc3)s2)=[N+]2C1=C(c1ccc(NC(=O)CCl)cc1)c1cccn1[B-]2(F)F [BDNCA-65] | 0.04 | 593 | 37 | 30,755 | 630 |  |  |  |  |  |
| CCOc1ccc(/C=C/C2=[N+]3C(=C(c4ccc(NC(=O)CCl)cc4)c4cccn4[B-]3(F)F)C(C)=C2)cc1OC [BDNCA-63] | 0.07 | 572 | 51 | 35,149 | 623 |  |  |  |  |  |
| CC1=CC(/C=C/c2ccc(C)o2)=[N+]2C1=C(c1ccc(NC(=O)CCl)cc1)c1cccn1[B-]2(F)F [BDNCA-135] | 0.07 | 577 | 41 | 37,346 | 618 |  |  |  |  |  |
| CC1=CC(/C=C/c2cc(Cl)cc(Cl)c2O)=[N+]2C1=C(c1ccc(NC(=O)CCl)cc1)c1cccn1[B-]2(F)F [BDNCA-57] | 0.02 | 561 | 16 | 23,066 | 577 |  |  |  |  |  |
| CC1=CC(/C=C/c2cc(C)c(C)cc2C)=[N+]2C1=C(c1ccc(NC(=O)CCl)cc1)c1cccn1[B-]2(F)F [BDNCA-343] |  |  |  |  |  | 562 | 26 | 28,284 | 588 | 0.06 |
| COc1cccc(/C=C/C2=[N+]3C(=C(c4ccc(NC(=O)CCl)cc4)c4cccn4[B-]3(F)F)C(C)=C2)c1OC [BDNCA-83] | 0.12 | 557 | 20 | 40,366 | 577 |  |  |  |  |  |
| CCOc1ccccc1/C=C/c1cc(C)c2n1[B-](F)(F)[N+]1=CC=CC1=C2c1ccc(NC(=O)CCl)cc1 [BDNCA-336] |  |  |  |  |  | 562 | 23 | 63,982 | 585 | 0.12 |
| CC1=CC(/C=C/c2ccc(-c3ccc(Br)cc3)o2)=[N+]2C1=C(c1ccc(NC(=O)CCl)cc1)c1cccn1[B-]2(F)F [BDNCA-428] |  |  |  |  |  | 506 | 151 | 17,025 | 657 | 0.02 |
| CC1=CC(/C=C/c2cc(Br)ccc2O)=[N+]2C1=C(c1ccc(NC(=O)CCl)cc1)c1cccn1[B-]2(F)F [BDNCA-73] | 0.04 | 564 | 21 | 27,185 | 585 |  |  |  |  |  |
| COc1ccc2c(OC)ccc(/C=C/C3=[N+]4C(=C(c5ccc(NC(=O)CCl)cc5)c5cccn5[B-]4(F)F)C(C)=C3)c2c1 [BDNCA-70] | 0.04 | 587 | 90 | 29,931 | 677 |  |  |  |  |  |
| CC1=CC(/C=C/C=C/c2ccco2)=[N+]2C1=C(c1ccc(NC(=O)CCl)cc1)c1cccn1[B-]2(F)F [BDNCA-417] |  |  |  |  |  | 519 |  | 13,730 | weak | weak |

| SMILES | Qunt. Yield (BDNCA library) | Abs (BDNCA library, absorption) [nm] | Flu-Abs [1] | ε [2] | Flu [3] | Abs [4] [nm] | Flu-Abs [5] | ε [6] | Flu [7] | Qunt. Yield (quantum yield, BDNCA library) |
| --- | --- | --- | --- | --- | --- | --- | --- | --- | --- | --- |
| CC1=CC(/C=C/c2ccoc2)=[N+]2C1=C(c1ccc(NC(=O)CCl)cc1)c1cccn1[B-]2(F)F [BDNCA-71] | 0.05 | 550 | 20 | 43,661 | 570 |  |  |  |  |  |
| Cc1cccc(/C=C/c2cc(C)c3n2[B-](F)(F)[N+]2=CC=CC2=C3c2ccc(NC(=O)CCl)cc2)c1 [BDNCA-9] | 0.10 | 556 | 19 | 47,780 | 575 |  |  |  |  |  |
| CC1=CC(/C=C/C2CCCCC2)=[N+]2C1=C(c1ccc(NC(=O)CCl)cc1)c1cccn1[B-]2(F)F [BDNCA-414] |  |  |  |  |  | 524 | 23 | 49,428 | 547 | 0.09 |
| CC1=CC(/C=C/c2cccc(O)c2Cl)=[N+]2C1=C(c1ccc(NC(=O)CCl)cc1)c1cccn1[B-]2(F)F [BDNCA-283] | 0.05 | 556 | 18 | 27,460 | 574 |  |  |  |  |  |
| Cc1cc(/C=C/c2ccc(-c3ccccc3)o2)n2c1C(c1ccc(NC(=O)CCl)cc1)=C1C=CC=[N+]1[B-]2(F)F [BDNCA-319] |  |  |  |  |  | 598 | 58 | 54,096 | 656 | 0.05 |
| COc1ccc(/C=C/C2=[N+]3C(=C(c4ccc(NC(=O)CCl)cc4)c4cccn4[B-]3(F)F)C(C)=C2)cc1Br [BDNCA-260] | 0.19 | 564 | 27 | 86,499 | 591 |  |  |  |  |  |
| COc1cc(/C=C/C2=[N+]3C(=C(c4ccc(NC(=O)CCl)cc4)c4cccn4[B-]3(F)F)C(C)=C2)cc(OC)c1 [BDNCA-209] | 0.12 | 556 | 20 | 62,334 | 576 |  |  |  |  |  |
| COc1cc(Cl)cc(/C=C/C2=[N+]3C(=C(c4ccc(NC(=O)CCl)cc4)c4cccn4[B-]3(F)F)C(C)=C2)c1OC [BDNCA-282] | 0.12 | 557 | 20 | 52,723 | 577 |  |  |  |  |  |
| CC1=CC(/C=C/c2[nH]cnc2C)=[N+]2C1=C(c1ccc(NC(=O)CCl)cc1)c1cccn1[B-]2(F)F [BDNCA-134] | weak | 566 |  | 12,082 | weak |  |  |  |  |  |
| CC(=O)Nc1ccc(/C=C/C2=[N+]3C(=C(c4ccc(NC(=O)CCl)cc4)c4cccn4[B-]3(F)F)C(C)=C2)cc1 [BDNCA-111] | 0.04 | 570 | 29 | 18,947 | 599 |  |  |  |  |  |
| COc1cc(OC)c(OC)cc1/C=C/C1=[N+]2C(=C(c3ccc(NC(=O)CCl)cc3)c3cccn3[B-]2(F)F)C(C)=C1 [BDNCA-144] | weak | 585 |  | 62,609 | weak |  |  |  |  |  |
| CC1=CC(/C=C/c2cn(C)c3ccccc23)=[N+]2C1=C(c1ccc(NC(=O)CCl)cc1)c1cccn1[B-]2(F)F [BDNCA-94] | 0.02 | 548 | 114 | 23,890 | 662 |  |  |  |  |  |
| CC1=CC(/C=C/c2cc3ccccc3o2)=[N+]2C1=C(c1ccc(NC(=O)CCl)cc1)c1cccn1[B-]2(F)F [BDNCA-368] |  |  |  |  |  | 578 | 23 | 21,968 | 601 | 0.03 |
| CC1=CC(/C=C/c2ccc(C(C)(C)C)cc2)=[N+]2C1=C(c1ccc(NC(=O)CCl)cc1)c1cccn1[B-]2(F)F [BDNCA-177] | 0.15 | 558 | 23 | 73,867 | 581 |  |  |  |  |  |
| Cc1cc(/C=C/c2ccc(N(C)C)c3ccccc23)n2c1C(c1ccc(NC(=O)CCl)cc1)=C1C=CC=[N+]1[B-]2(F)F [BDNCA-377] |  |  |  |  |  | 590 |  | 58,215 | weak | weak |
| CCOc1c(/C=C/C2=[N+]3C(=C(c4ccc(NC(=O)CCl)cc4)c4cccn4[B-]3(F)F)C(C)=C2)cccc1OC [BDNCA-320] |  |  |  |  |  | 557 | 24 | 59,588 | 581 | 0.10 |
| COc1ccc(/C=C/c2cc(C)c3n2[B-](F)(F)[N+]2=CC=CC2=C3c2ccc(NC(=O)CCl)cc2)c(Br)c1O [BDNCA-261] | 0.01 | 567 | 29 | 49,703 | 596 |  |  |  |  |  |
| C=CCOc1ccccc1/C=C/C1=[N+]2C(=C(c3ccc(NC(=O)CCl)cc3)c3cccn3[B-]2(F)F)C(C)=C1 [BDNCA-202] | 0.13 | 561 | 24 | 57,666 | 585 |  |  |  |  |  |
